Laboratory results as given in ChEMBL document CHEMBL5233275, “Effect of Flexibility, Lipophilicity, and the Location of Polar Residues on the Passive Membrane Permeability of a Series of Cyclic Decapeptides” (J Med Chem, 2021).
≈ marks a conversion by molar mass, not a printed value. Where a SMILES comes first, the peptide text is derived from it. [ ]: non-standard residue; d: D form. NMeF = CN[C@@H](Cc1ccccc1)C(=O)O; NMeA = CN[C@@H](C)C(=O)O; dNMeA = CN[C@H](C)C(=O)O; Sar = CNCC(=O)O

Tests used:
Assay type in all cases: physicochemical
[1] = Decadiene/water partition coefficient, logD of compound at pH 7.4 by HPLC analysis
[2] = Solubility of the compound by high-throughput equilibrium solubility assay
[3] = Octanol/water partition coefficient, logD of compound at pH 7.4 by HPLC analysis

Compound	logD hydrocarbon water [1]	solubility thermodynamic [2] [µM]	logD [3]
CC(C)C[C@@H]1NC(=O)[C@H](C)N(C)C(=O)[C@H]2CCCN2C(=O)[C@H](CC(C)C)NC(=O)[C@H](C)N(C)C(=O)[C@H](CC(C)C)NC(=O)[C@H](C)N(C)C(=O)[C@H]2CCCN2C(=O)[C@H](CC(C)C)NC(=O)[C@H]([C@@H](C)O)N(C)C1=O	1.7	763 (≈ 776 µg/mL)	–
CC(C)C[C@@H]1NC(=O)[C@H](Cc2ccccc2)N(C)C(=O)[C@H]2CCCN2C(=O)[C@H](CC(C)C)NC(=O)[C@H](C)N(C)C(=O)[C@H](CC(C)C)NC(=O)[C@H](Cc2ccccc2)N(C)C(=O)[C@H]2CCCN2C(=O)[C@H](CC(C)C)NC(=O)[C@H]([C@@H](C)O)N(C)C1=O	5	4 (≈ 4.68 µg/mL)	5.7
CC(C)C[C@@H]1NC(=O)[C@H](C(C)C)N(C)C(=O)[C@H]2CCCN2C(=O)[C@H](CC(C)C)NC(=O)[C@H](C)N(C)C(=O)[C@H](CC(C)C)NC(=O)[C@H](C(C)C)N(C)C(=O)[C@H]2CCCN2C(=O)[C@H](CC(C)C)NC(=O)[C@H](C)N(C)C1=O	3.8	57 (≈ 59.5 µg/mL)	5.1
CC(C)C[C@@H]1NC(=O)[C@H]([C@@H](C)O)N(C)C(=O)[C@H]2CCCN2C(=O)[C@H](CC(C)C)NC(=O)[C@H]([C@@H](C)O)N(C)C(=O)[C@H](CC(C)C)NC(=O)[C@H]([C@@H](C)O)N(C)C(=O)[C@H]2CCCN2C(=O)[C@H](CC(C)C)NC(=O)[C@H]([C@@H](C)O)N(C)C1=O	-0.8	> 1000	–
CC(C)C[C@@H]1NC(=O)[C@H](C(C)C)N(C)C(=O)[C@H]2CCCN2C(=O)[C@H](CC(C)C)NC(=O)[C@@H](C)N(C)C(=O)[C@H](CC(C)C)NC(=O)[C@H](C(C)C)N(C)C(=O)[C@H](C)N(C)C(=O)[C@H](CC(C)C)NC(=O)[C@@H](C)N(C)C1=O	4	220 (≈ 227 µg/mL)	5.2
CC(C)C[C@@H]1NC(=O)[C@H](C)N(C)C(=O)[C@H](CC(C)C)NC(=O)[C@@H]2CCCN2C(=O)CN(C)C(=O)[C@H](CC(C)C)NC(=O)[C@H](C)N(C)C(=O)[C@H](CC(C)C)NC(=O)[C@@H]2CCCN2C(=O)CN(C)C1=O (cyclo(L[NMeA]L[Sar]PL[NMeA]L[Sar]P))	0.3	> 1000	–
CC(C)C[C@@H]1NC(=O)[C@H](C)N(C)C(=O)[C@H](CC(C)C)NC(=O)[C@H](Cc2ccccc2)N(C)C(=O)[C@@H](C)N(C)C(=O)[C@H](CC(C)C)NC(=O)[C@H](C)N(C)C(=O)[C@H](CC(C)C)NC(=O)[C@H](Cc2ccccc2)N(C)C(=O)[C@@H](C)N(C)C1=O (cyclo(L[NMeA]L[dNMeA][NMeF]L[NMeA]L[dNMeA][NMeF]))	5.1	4 (≈ 4.46 µg/mL)	–
CC(C)C[C@@H]1NC(=O)[C@H](Cc2ccccc2)N(C)C(=O)[C@H]2CCCN2C(=O)[C@H](CC(C)C)NC(=O)[C@H](C)N(C)C(=O)[C@H](CC(C)C)NC(=O)[C@H](Cc2ccccc2)N(C)C(=O)[C@H]2CCCN2C(=O)[C@H](CC(C)C)NC(=O)[C@H](C)N(C)C1=O (cyclo(L[NMeA]L[dP][NMeF]L[NMeA]L[dP][NMeF]))	> 3.5	4 (≈ 4.56 µg/mL)	> 5.7
CC(C)C[C@@H]1NC(=O)[C@H](C)N(C)C(=O)[C@H]2CCCN2C(=O)[C@H](CC(C)C)NC(=O)[C@H](C)N(C)C(=O)[C@H](CC(C)C)NC(=O)[C@H]([C@@H](C)O)N(C)C(=O)[C@H]2CCCN2C(=O)[C@H](CC(C)C)NC(=O)[C@H]([C@@H](C)O)N(C)C1=O	1.2	> 1000	–
CC(C)C[C@@H]1NC(=O)[C@H]([C@@H](C)O)N(C)C(=O)[C@H]2CCCN2C(=O)[C@H](CC(C)C)NC(=O)[C@H](C)N(C)C(=O)[C@H](CC(C)C)NC(=O)[C@H]([C@@H](C)O)N(C)C(=O)[C@H]2CCCN2C(=O)[C@H](CC(C)C)NC(=O)[C@H](C)N(C)C1=O	1.2	884 (≈ 926 µg/mL)	3.8
CC(C)C[C@@H]1NC(=O)[C@H]([C@@H](C)O)N(C)C(=O)[C@H]2CCCN2C(=O)[C@H](CC(C)C)NC(=O)[C@H]([C@@H](C)O)N(C)C(=O)[C@H](CC(C)C)NC(=O)[C@H](C)N(C)C(=O)[C@H]2CCCN2C(=O)[C@H](CC(C)C)NC(=O)[C@H]([C@@H](C)O)N(C)C1=O	0.4	827 (≈ 891 µg/mL)	–
CC(C)C[C@@H]1NC(=O)[C@H]([C@@H](C)O)N(C)C(=O)[C@H]2CCCN2C(=O)[C@H](CC(C)C)NC(=O)[C@H](C)N(C)C(=O)[C@H](CC(C)C)NC(=O)[C@H](Cc2ccccc2)N(C)C(=O)[C@H]2CCCN2C(=O)[C@H](CC(C)C)NC(=O)[C@H](C)N(C)C1=O	3.7	65 (≈ 71.1 µg/mL)	5.7
CC(C)C[C@@H]1NC(=O)[C@H](C)N(C)C(=O)[C@H](CC(C)C)NC(=O)[C@H]2CCCN2C(=O)[C@@H]2CCCN2C(=O)[C@H](CC(C)C)NC(=O)[C@H](C)N(C)C(=O)[C@H](CC(C)C)NC(=O)[C@H](C(C)C)N(C)C(=O)[C@@H](C)N(C)C1=O	3.1	92 (≈ 93.4 µg/mL)	5.1
CC(C)C[C@@H]1NC(=O)[C@@H]2CCCN2C(=O)[C@H]2CCCN2C(=O)[C@H](CC(C)C)NC(=O)[C@H](C)N(C)C(=O)[C@H](CC(C)C)NC(=O)[C@@H]2CCCN2C(=O)[C@H]2CCCN2C(=O)[C@H](CC(C)C)NC(=O)[C@H](C)N(C)C1=O	1.6	220 (≈ 222 µg/mL)	4.3
CC(C)C[C@@H]1NC(=O)[C@H](C)N(C)C(=O)[C@H]2CCCN2C(=O)[C@H](CC(C)C)NC(=O)[C@H](C)N(C)C(=O)[C@H](CC(C)C)NC(=O)[C@H](C)N(C)C(=O)[C@H]2CCCN2C(=O)[C@H]([C@@H](C)O)NC(=O)[C@H](C)N(C)C1=O	0.1	> 1000	2.6
CC(C)C[C@@H]1NC(=O)[C@H](C)N(C)C(=O)[C@H]2CCCN2C(=O)[C@H](CC(C)C)NC(=O)[C@H](C)N(C)C(=O)[C@H]([C@@H](C)O)NC(=O)[C@H](C)N(C)C(=O)[C@H]2CCCN2C(=O)[C@H](CC(C)C)NC(=O)[C@H](C)N(C)C1=O	0.4	> 1000	2.7
CC(C)C[C@@H]1NC(=O)[C@H](C)N(C)C(=O)[C@H](CC(C)C)NC(=O)[C@H](C)N(C)C(=O)[C@@H](C)N(C)C(=O)[C@H](CC(C)C)NC(=O)[C@H](C)N(C)C(=O)[C@H](CC(C)C)NC(=O)[C@H](C)N(C)C(=O)[C@@H](C)N(C)C1=O (cyclo(L[NMeA]L[dNMeA][NMeA]L[NMeA]L[dNMeA][NMeA]))	2.7	477 (≈ 459 µg/mL)	4.6
CC(C)C[C@@H]1NC(=O)[C@H](C)N(C)C(=O)[C@H]2CCCN2C(=O)[C@H](CC(C)C)NC(=O)[C@H](C)N(C)C(=O)[C@H](CC(C)C)NC(=O)[C@H](C)N(C)C(=O)[C@@H]2C[C@@H](O)CN2C(=O)[C@H](CC(C)C)NC(=O)[C@H](C)N(C)C1=O	0.2	910 (≈ 913 µg/mL)	4.1
CC(C)C[C@@H]1NC(=O)[C@H](Cc2ccccc2)N(C)C(=O)[C@H]2CCCN2C(=O)[C@H](CC(C)C)NC(=O)[C@H](C)N(C)C(=O)[C@H]([C@@H](C)O)NC(=O)[C@H](Cc2ccccc2)N(C)C(=O)[C@H]2CCCN2C(=O)[C@H](CC(C)C)NC(=O)[C@H](C)N(C)C1=O	4	15 (≈ 16.9 µg/mL)	5.4
CC(C)C[C@@H]1NC(=O)[C@H]([C@@H](C)O)N(C)C(=O)[C@@H]2C[C@@H](O)CN2C(=O)[C@H](CC(C)C)NC(=O)[C@H](C)N(C)C(=O)[C@H](CC(C)C)NC(=O)[C@H](Cc2ccccc2)N(C)C(=O)[C@@H]2C[C@@H](O)CN2C(=O)[C@H](CC(C)C)NC(=O)[C@H](C)N(C)C1=O	-0.6	320 (≈ 360 µg/mL)	4.7
CC(C)C[C@@H]1NC(=O)[C@H](Cc2ccccc2)N(C)C(=O)[C@H]2CCCN2C(=O)[C@H](CC(C)C)NC(=O)[C@H](C)N(C)C(=O)[C@H](CC(C)C)NC(=O)[C@H](Cc2ccccc2)N(C)C(=O)[C@H]2CCCN2C(=O)[C@H]([C@@H](C)O)NC(=O)[C@H](C)N(C)C1=O	3.6	20 (≈ 22.5 µg/mL)	5.1
CC(C)C[C@@H]1NC(=O)[C@H](C)N(C)C(=O)[C@H]2CCCN2C(=O)[C@H](CC(C)C)NC(=O)[C@H](C)N(C)C(=O)[C@H](CC(C)C)NC(=O)[C@H](C)N(C)C(=O)[C@H]2CCCN2C(=O)[C@H](CC(C)C)NC(=O)[C@H](C)N(C)C1=O	2.5	794 (≈ 784 µg/mL)	4.7
CC(C)C[C@@H]1NC(=O)[C@H](C)N(C)C(=O)[C@H](CC(C)C)NC(=O)[C@H](C(C)C)N(C)C(=O)[C@@H](C)N(C)C(=O)[C@H](CC(C)C)NC(=O)[C@H](C)N(C)C(=O)[C@H](CC(C)C)NC(=O)[C@H](C(C)C)N(C)C(=O)[C@@H](C)N(C)C1=O	3.8	560 (≈ 571 µg/mL)	5.2
CC(C)C[C@@H]1NC(=O)[C@H](C)N(C)C(=O)[C@H]2CCCN2C(=O)[C@H](CC(C)C)NC(=O)[C@H]([C@@H](C)O)N(C)C(=O)[C@H](CC(C)C)NC(=O)[C@H](C)N(C)C(=O)[C@H]2CCCN2C(=O)[C@H](CC(C)C)NC(=O)[C@H]([C@@H](C)O)N(C)C1=O	1	445 (≈ 466 µg/mL)	–
